From US12343328B2, “Dialkyl tryptamines and their therapeutic uses” (CAAMTECH, INC., priority 2020, dated 2025)

System: murine Head Twitch Response
Assay: murine Head Twitch Response (HTR)
Details: Mus musculus, read-out: HTR ED50

**Q.** Which ED50 does the source give for `CN(C)CCc1c[nH]c2cccc(OP(=O)(O)O)c12` [Psilocybin] here?
**A.** 1.02 µmol/kg

**Q.** Which ED50 does the source give for `CN(C)CCc1c[nH]c2cccc(O)c12` [Psilocin] here?
**A.** 0.54 µmol/kg
